In brackets after ≈: the same amount, converted by molar mass. Read-outs that look alike come from different tables or passages of the source. Bounds are passed on as bounds.

The values below come from paper PMC8951032, “Study of Biological Activities and ADMET-Related Properties of Novel Chlorinated N-arylcinnamamides” (International Journal of Molecular Sciences, 2022).

The test system of test [1] is human synovial cell line SW982. The experiment in a line: In vitro cell viability, CCK-8. The class given is cell-based. The note with it: 10% fetal bovine serum. As to the method:
(§1) The effect of the compounds on viability of eukaryotic cells was evaluated on human leukemia cell line THP-1, human synovial cell line SW982, and isolated primary porcine monocytes-delivered macrophages (MDM). The general cytotoxic effect was studied on THP-1 cells in the serum-free medium (only THP-1 as the only cells used in this study are able to survive in serum-free medium). Most of the compounds had no cytotoxic effect on THP-1 cells. […] This could be caused by the direct interaction of such compounds with serum proteins or by the effect of mitogens, cytokines, and hormones present in the serum. Obviously, the full medium is closer to physiological conditions in living organisms, so it can be assumed that these compounds could be non-toxic there.
(§2) Human monocytic leukemia cell line THP-1 and human synovial cell line SW982 were purchased from the European Collection of Cell Cultures (ECACC, Salisbury, UK) and were used for determination of the influence of test compounds on cell viability, as described previously. These cell lines represent typical suspension and adherent cells, respectively. They were cultivated with test substances in the presence or absence of fetal bovine serum (FBS) in the cultivation medium, and the relative cell viability (the ratio between cells treated with compounds and cells treated only with DMSO) was determined by CCK-8 kit (Sigma) after 24 h.

Test [2] concerns human monocytic leukemia cell line THP-1. Description: In vitro cell viability, CCK-8. The class given is cell-based. The note with it: for IC50: Homo sapiens, THP-1. On the procedure:
as §1, §2

Test [3] relates to Mycobacterium marinum CAMP 5644. Description: In vitro antimycobacterial activity, broth dilution MIC. The format is cell-based. As to conditions: CAMP5644, 504 h.
Test [4] has as its system S. aureus, MRSA, E. faecalis, VRE, M. smegmatis, M. marinum. The experiment in a line: In vitro antimicrobial screening, all tested strains. The class given is cell-based. As to conditions: antibacterial/antimycobacterial screening.
Another test relates to THP-1 cells. The experiment in a line: Cell death assay by flow cytometry (Annexin V / LIVE/DEAD). The class given is cell-based, human. As to conditions: serum-free medium, 24 h. On the procedure:
Subsequently, compounds 2k and 2q were selected for analysis by flow cytometry and cytotoxic effects were detected after treatment of cells by 2k and 2q in serum-free medium at two selected concentrations, 1.0 µM and 0.5 µM, respectively. […] Moreover, 2k increased the number of dead cells (20%) (Figure 2). […] Thus, it can be assumed that 2k attenuates cell metabolism.
Annexin V eFluor450 (Invitrogene, Waltham, MA, USA) with LIVE/DEAD Fixable Far Red Dead Cell Stain Kit (Invitrogene) were used for the analysis of cell death. THP-1 cells resuspended in serum-free medium and treated by two selected drugs, such as 2q and 2k, by IC50 concentrations, 0.5 µM and 1.0 µM, respectively, for 24 h. Cells were double-stained by AnnexinV eFluor 450 (1:20) and LIVE/DEAD Fixable Far Red (3:1000). Finally, the cells were analysed by flow cytometer (Amnis CellStream; Luminex, Austin, TX, USA) and the data were evaluated by CellStream Analysis 1.2.55 software. The dot plots were divided into four quadrants. Live cells (low left quadrant), apoptosis (upper-left quadrant) and necrosis as a terminal stage of cell death (upper-right quadrant) were distinguished. Experiments were performed in duplicates and in three independent repetitions.
Background: In flow cytometry, cells or beads pass a laser one at a time.

Where [5] appears, read: 24 h, read-out: IC50 SW982 10% FSB.
Where [6] appears, read: read-out: log(1/IC50 [M]) SW982 10% FSB (converted).
The mark [7] stands for this setting: 10% fetal bovine serum, 24 h, read-out: IC50 THP-1 10% FSB.
[8] abbreviates: 10% fetal bovine serum, read-out: log(1/IC50 [M]) THP-1 10% FSB (converted).
Where [9] appears, read: serum-free medium, 24 h, read-out: IC50 THP-1 SFM.
[10] abbreviates: serum-free medium, read-out: log(1/IC50 [M]) THP-1 SFM (converted).
The mark [11] stands for this setting: M. marinum CAMP 5644, 21 days, read-out: MIC MM.
[12] abbreviates: M. marinum CAMP 5644, read-out: log(1/MIC [M]) MM (converted).

With `O=C(/C=C/c1ccc(Cl)cc1)Nc1cccc(C(F)(F)F)c1` [1i, (2E)-3-(4-Chlorophenyl)-N-[3-(trifluoromethyl)phenyl]prop-2-enamide], the IC50 is greater than 1e-05 M in test [1] (setting [5]); greater than 1e-05 M in test [1] (setting [6]); greater than 1e-05 M in test [2] (setting [7]); greater than 1e-05 M in test [2] (setting [8]); 2.9e-06 ± 1.2e-06 M in test [2] (setting [9]); 2.88e-06 M in test [2] (setting [10]). The values for the MIC in test [3] (setting [11]) and in test [3] (setting [12]) were greater than 0.000786 M and greater than 0.000794 M, respectively. Moreover, the “antimicrobial activity (in words)” value in test [4] was “showed activity”.
Turning to `O=C(/C=C/c1ccc(Cl)cc1)Nc1cc(Cl)cc(Cl)c1` [1p, (2E)-3-(4-Chlorophenyl)-N-(3,5-dichlorophenyl)prop-2-enamide], the IC50 was greater than 1e-05 M in test [1] (setting [5]); greater than 1e-05 M in test [1] (setting [6]); greater than 1e-05 M in test [2] (setting [7]); greater than 1e-05 M in test [2] (setting [8]); 2.5e-06 ± 1.1e-06 M in test [2] (setting [9]); 2.51e-06 M in test [2] (setting [10]). The MIC in test [3] (setting [11]) was greater than 0.000783 M; in test [3] (setting [12]), greater than 0.000776 M. Further, the “antimicrobial activity (in words)” value in test [4] was “showed activity”.
For the compound `O=C(/C=C/c1ccc(Cl)cc1)Nc1cc(C(F)(F)F)cc(C(F)(F)F)c1` [1q, (2E)-N-[3,5-bis(Trifluoromethyl)phenyl]-3-(4-chlorophenyl)prop-2-enamide], the IC50 was greater than 1e-05 M in test [1] (setting [5]); greater than 1e-05 M in test [1] (setting [6]); greater than 1e-05 M in test [2] (setting [7]); greater than 1e-05 M in test [2] (setting [8]); 1e-06 ± 1.1e-06 M in test [2] (setting [9]); 1e-06 M in test [2] (setting [10]). The MIC in test [3] (setting [11]) is greater than 0.00065 M; in test [3] (setting [12]), greater than 0.000646 M. The “antimicrobial activity (in words)” value in test [4] is “showed activity”.
With `O=C(/C=C/c1ccc(Cl)c(Cl)c1)Nc1ccccc1` [2a, (2E)-3-(3,4-Dichlorophenyl)-N-phenylprop-2-enamide], the IC50 was greater than 1e-05 M in test [1] (setting [5]); greater than 1e-05 M in test [1] (setting [6]); greater than 1e-05 M in test [2] (setting [7]); greater than 1e-05 M in test [2] (setting [8]); 7.5e-06 ± 1e-06 M in test [2] (setting [9]); 7.59e-06 M in test [2] (setting [10]). Also, the MIC in test [3] (setting [11]) is 0.000876 M (≈ 256 µg/mL); in test [3] (setting [12]) it was 0.000871 M (≈ 254 µg/mL).
Take `O=C(/C=C/c1ccc(Cl)c(Cl)c1)Nc1cccc(C(F)(F)F)c1` [2i, (2E)-3-(3,4-Dichlorophenyl)-N-[3-(trifluoromethyl)phenyl]prop-2-enamide]: the IC50 in test [1] (setting [5]) was greater than 1e-05 M; in test [1] (setting [6]), greater than 1e-05 M; in test [2] (setting [7]) it was greater than 1e-05 M; in test [2] (setting [8]), greater than 1e-05 M; in test [2] (setting [9]), 1.9e-06 ± 1e-06 M; in test [2] (setting [10]), 1.91e-06 M. Further, the MIC in test [3] (setting [11]) is 5.55e-06 M (≈ 2 µg/mL); in test [3] (setting [12]), 5.5e-06 M (≈ 1.98 µg/mL). For the same compound, the “antimicrobial activity (in words)” value in test [4] was “active”.
Regarding `O=C(/C=C/c1ccc(Cl)c(Cl)c1)Nc1ccc(C(F)(F)F)cc1` [2j, (2E)-3-(3,4-Dichlorophenyl)-N-[4-(trifluoromethyl)phenyl]prop-2-enamide], the IC50 is greater than 1e-05 M in test [1] (setting [5]); greater than 1e-05 M in test [1] (setting [6]); greater than 1e-05 M in test [2] (setting [7]); greater than 1e-05 M in test [2] (setting [8]); 9e-07 ± 1e-06 M in test [2] (setting [9]); 8.91e-07 M in test [2] (setting [10]). In addition, the MIC in test [3] (setting [11]) was 2.78e-06 M (≈ 1 µg/mL); in test [3] (setting [12]) it was 2.75e-06 M (≈ 0.992 µg/mL). The “antimicrobial activity (in words)” value in test [4] is “active”.
With `O=C(/C=C/c1ccc(Cl)c(Cl)c1)Nc1ccc(OC(F)(F)F)cc1` [2k, (2E)-3-(3,4-Dichlorophenyl)-N-[4-(trifluoromethoxy)phenyl]prop-2-enamide], the IC50 in test [1] (setting [5]) was greater than 1e-05 M; in test [1] (setting [6]), greater than 1e-05 M; in test [2] (setting [7]), greater than 1e-05 M; in test [2] (setting [8]), greater than 1e-05 M; in test [2] (setting [9]) it was 1e-06 ± 1e-06 M; in test [2] (setting [10]) it was 5.01e-07 M. The “reduction of cell viability, CCK-8 assay” value in test [2] (2k 1.0 µM, serum-free medium) came out at 50%. The MIC in test [3] (setting [11]) is 2.66e-06 M (≈ 1 µg/mL); in test [3] (setting [12]), 2.95e-07 M (≈ 0.111 µg/mL). The “number of dead cells” value in the test on THP-1 cells (2k 1.0 µM) came out at 20%. The “antimicrobial activity (in words)” value in test [4] was “active”.
Consider `O=C(/C=C/c1ccc(Cl)c(Cl)c1)Nc1cc(C(F)(F)F)cc(C(F)(F)F)c1` [2q, (2E)-N-[3,5-bis(Trifluoromethyl)phenyl]-3-(3,4-dichlorophenyl)prop-2-enamide], for which the IC50 in test [1] (setting [5]) was greater than 1e-05 M; in test [1] (setting [6]), greater than 1e-05 M; in test [2] (setting [7]) it was greater than 1e-05 M; in test [2] (setting [8]), greater than 1e-05 M; in test [2] (setting [9]), 5e-07 ± 1e-06 M; in test [2] (setting [10]) it was 1e-06 M. The MIC in test [3] (setting [11]) is 2.92e-07 M (≈ 0.125 µg/mL); in test [3] (setting [12]), 2.63e-06 M (≈ 1.13 µg/mL). Moreover, in the test on THP-1 cells (2q 0.5 µM), the “apoptosis (in words)” value is listed as “not observed”. In addition, the “necrosis (in words)” value in the test on THP-1 cells (2q 0.5 µM) is listed as “significantly induced”. Moreover, the “antimicrobial activity (in words)” value in test [4] is on record as “active”.
